Assay results as given in patent US20260193255A1, “7-AZAINDOLE COMPOUNDS, PREPARATION METHOD THEREFOR, AND USE THEREOF” (Fudan University, priority 2022, published 2026).

Tests used:
[1] = target: ActRIIB (Homo sapiens, UniProt Q13705); assay: ActRIIB inhibitory activity, ADP-Glo assay kit; type: biochemical; details: ATP 25 μM, substrate 0.1 mg/mL, ActRIIB 20.0 ng/μL
Procedure: The ATP and substrate concentrations recommended by the ADP-Glo™ assay kit were used, which were 25 μM and 0.1 mg/mL, respectively, and a series of isocratic final ActRIIB concentrations were set up, which were 0, 0.47, 0.94, 1.88, 3.75, 7.5, 15, 30, and 60 ng/μL, respectively. According to the […] values obtained in the experiment, an ActRIIB concentration titration curve was drawn. The ActRIIB concentrations corresponding to the ratio of the signal value to the background value (i.e., signal-to-background ratio, SBR) in the range of 5-10 times are suitable for screening compounds for inhibition of ActRIIB activity. From the ActRIIB concentration titration curve, the final ActRIIB concentrations corresponding to SB5 and SB10 were calculated to be 14.9 and 23.7 ng/μL, respectively. Finally, a final concentration of 20.0 ng/μL was selected as the experimental concentration for screening compounds for their inhibitory activity against ActRIIB. The inhibitory efficiency of 7-azaindole compounds on ActRIIB was detected at concentrations of 0.1, 1, 10, and 100 nM, respectively.

[2] = system: mouse myoblasts (C2C12); assay: Atrophy of mouse myoblasts (C2C12) induced by C26 cell supernatant, myotube diameter by HE staining; type: cell-based; details: 48 hours treatment, C26 supernatant-induced C2C12 myotubes
Procedure: C2C12 cells were inoculated in 24-well plates. The culture system was high-glucose DMEM medium containing 10% FBS with 1% penicillin-streptomycin. The plates were placed in a 5% CO2, 37° C. environment. When the cell growth density reached 50%-60%, the culture system was replaced with high-glucose DMEM culture medium containing 2% HS with 1% penicillin-streptomycin. Fresh 2% HS differentiation medium was replaced every 48 hours, and the cells were differentiated into mature cells on the 5th or 6th day. Additionally, C26 cells were inoculated in T75 flasks. The culture system was high-glucose DMEM medium containing 10% FBS with 1% penicillin-streptomycin. The flasks were placed in a 5% CO2, 37° C. environment. When subculturing, the cells were subcultured at 6 million cells/flask. After culturing in 20 ml of culture medium for 48 hours, the supernatant was collected and centrifuged at 1000 rpm for 3 mins. The supernatant was collected and centrifuged at 4000 rpm for 10 mins to obtain the C26 supernatant. The C26 supernatant and 2% HS differentiation solution were mixed at a ratio of 1:1 (volume ratio) as the muscle atrophy induction solution. Except for the control group in which 2% HS differentiation solution was added, for the other groups, an equivalent amount of muscular atrophy induction solution was added. One group was used as the model group, and the other groups were used as the treatment and experimental groups.
The diameter of myotubes after differentiation of mouse myoblasts (C2C12) was evaluated by using the diameter measurement method. The method for measuring the diameter of myotubes was as follows: after 48 hours of treatment, the myotubes were fixed with a fixative (anhydrous ethanol: formaldehyde: glacial acetic acid (volume ratio)=20:2:1) for more than 1 h and stained. The staining method used in the experiment is hematoxylin-eosin staining, referred to as HE staining for short. Hematoxylin stain is alkaline and positively charged, and it can easily bind to the negatively charged and acidic deoxyribonucleic acid (DNA) in the cell nucleus through ionic bonds to stain it blue; eosin is an acidic dye that dissociates into negatively charged anions in water, and it can easily bind to the positively charged amino groups of proteins in the cytoplasm to stain it red. The stained cells were placed under a high-power microscope to take pictures (magnification: 200 times), and the diameter of myotube cells was statistically analyzed using image J software. The muscle atrophy reversal rate was calculated according to the following formula: Muscle atrophy reversal rate=(average value of myotubes in the treatment group-average value of myotubes in the model group)/(average value of myotubes in the control group-average value of myotubes in the model group)×100%

[3] = Mus musculus, read-out: Myotube atrophy reversal rate

Chain of ActRIIB (Q13705 19-512): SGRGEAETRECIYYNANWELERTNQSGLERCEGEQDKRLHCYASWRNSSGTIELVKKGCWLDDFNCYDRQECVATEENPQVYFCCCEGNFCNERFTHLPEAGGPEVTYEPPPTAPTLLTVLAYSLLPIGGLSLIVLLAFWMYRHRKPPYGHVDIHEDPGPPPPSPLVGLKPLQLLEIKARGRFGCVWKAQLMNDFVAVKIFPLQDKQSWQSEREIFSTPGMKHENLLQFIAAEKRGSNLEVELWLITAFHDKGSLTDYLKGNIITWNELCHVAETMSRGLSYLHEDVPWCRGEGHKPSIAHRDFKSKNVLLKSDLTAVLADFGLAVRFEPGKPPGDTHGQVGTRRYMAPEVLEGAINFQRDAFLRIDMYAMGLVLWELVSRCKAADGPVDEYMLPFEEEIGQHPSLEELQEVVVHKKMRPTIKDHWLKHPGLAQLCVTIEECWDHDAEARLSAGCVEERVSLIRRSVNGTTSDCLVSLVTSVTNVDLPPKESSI

Row | IC50 [1] [nM] | Compound | inhibition at 2.5 µM [2, 3] [%] | inhibition at 10 µM [2, 3] [%] | inhibition at 5 µM [2, 3] [%] | inhibition at 1.25 µM ([2]; Mus musculus, 1.25 μM, read-out: Myotube atrophy reversal rate) [%] | Myotube atrophy reversal rate ([2]; 1.25 μM) [%]
1 | 20.4 | CN1CCN(c2ccc(-c3cnc4[nH]cc(-c5cn[nH]c5)c4c3)cc2)CC1 [Compound 1, 3-(1H-pyrazol-4-yl)-5-[4-(4-methylpiperazin-1-yl)phenyl]-1H-pyrrolo[2,3-b]pyridine] | 63.5 | – | – | – | –
2 | 78.9 | CCN(CC)CCOc1ccc(-c2cnc3[nH]cc(-c4ccnn4C)c3c2)cc1 [Compound 18, 5-(4-{[2-(diethylamino)ethyl]oxy}phenyl)-3-(2-methylpyrazol-3-yl)-1H-pyrrolo[2,3-b]pyridine] | – | 84.5 | – | – | –
3 | 1.86 | Cn1nccc1-c1c[nH]c2ncc(-c3ccc(N4CCOCC4)cc3)cc12 [Compound 16, 3-(2-methylpyrazol-3-yl)-5-[4-(1,4-oxazacyclohexan-4-yl)phenyl]-1H-pyrrolo[2,3-b]pyridine] | – | – | 78 | – | –
4 | 12.6 | Cn1nccc1-c1c[nH]c2ncc(-c3ccc(OCCN4CCCCC4)cc3)cc12 [Compound 13, 5-(4-{[2-(hexahydropyridin-1-yl)ethyl]oxy}phenyl)-3-(2-methylpyrazol-3-yl)-1H-pyrrolo[2,3-b]pyridine] | – | 86.2 | – | – | –
5 | 4.4 | CCn1nccc1-c1c[nH]c2ncc(-c3ccc(N4CCN(C)CC4)cc3)cc12 [Compound 7, 3-(2-ethylpyrazol-3-yl)-5-[4-(4-methylpiperazin-1-yl)phenyl]-1H-pyrrolo[2,3-b]pyridine] | – | 77.1 | – | – | –
6 | 3.61 | Cn1nccc1-c1c[nH]c2ncc(-c3ccc(N4CCNCC4)cc3)cc12 [Compound 17, 3-(2-methylpyrazol-3-yl)-5-[4-(piperazin-1-yl)phenyl]-1H-pyrrolo[2,3-b]pyridine] | 65 | – | 97.7 | 39.9 | –
7 | 1.4 | CN1CCN(c2ccc(-c3cnc4[nH]cc(-c5ccnn5C)c4c3)cc2)CC1 [Compound 6, 5-[4-(4-methylpiperazin-1-yl)phenyl]-3-(2-methylpyrazol-3-yl)-1H-pyrrolo[2,3-b]pyridine] | 45.9 | 99.8 | 79.1 | – | –
8 | 2.6 | CC(C)n1nccc1-c1c[nH]c2ncc(-c3ccc(N4CCN(C)CC4)cc3)cc12 [Compound 8, 5-[4-(4-methylpiperazin-1-yl)phenyl]-3-[2-(prop-2-yl)pyrazol-3-yl]-1H-pyrrolo[2,3-b]pyridine] | – | – | 62.2 | – | –
9 | 87.3 | CN1CCN(c2ccc(-c3cnc4[nH]cc(-c5cccnc5)c4c3)cc2)CC1 [Compound 22, 5-[4-(4-methylpiperazin-1-yl)phenyl]-3-(pyridin-3-yl)-1H-pyrrolo[2,3-b]pyridine] | – | – | 75.4 | – | –
10 | 70.8 | CN1CCN(c2ccc(-c3cnc4[nH]cc(-c5cnn(C)c5)c4c3)cc2)CC1 [Compound 9, 5-[4-(4-methylpiperazin-1-yl)phenyl]-3-(1-methylpyrazol-4-yl)-1H-pyrrolo[2,3-b]pyridine] | 61.1 | – | – | – | –
11 | 58.6 | Cc1n[nH]cc1-c1c[nH]c2ncc(-c3ccc(N4CCN(C)CC4)cc3)cc12 [Compound 4, 3-(3-methyl-1H-pyrazol-4-yl)-5-[4-(4-methylpiperazin-1-yl)phenyl]-1H-pyrrolo[2,3-b]pyridine] | – | – | 63.6 | – | –
12 | 59.3 | CN1CCN(c2ccc(-c3cnc4[nH]cc(-c5ccncc5)c4c3)cc2)CC1 [Compound 24, 5-[4-(4-methylpiperazin-1-yl)phenyl]-3-(pyridin-4-yl)-1H-pyrrolo[2,3-b]pyridine] | – | – | 76.7 | – | –

Second part, the compound before the results:

Row | Compound | IC50 [1] [nM] | inhibition at 2.5 µM [2, 3] [%] | inhibition at 10 µM [2, 3] [%] | inhibition at 5 µM [2, 3] [%] | inhibition at 1.25 µM ([2]; Mus musculus, 1.25 μM, read-out: Myotube atrophy reversal rate) [%] | Myotube atrophy reversal rate ([2]; 1.25 μM) [%]
13 | Cn1nccc1-c1c[nH]c2ncc(-c3ccc(OCCN4CCOCC4)cc3)cc12 [Compound 12, 3-(2-methylpyrazol-3-yl)-5-(4-{[2-(1,4-oxazacyclohexan-4-yl)ethyl]oxy}phenyl)-1H-pyrrolo[2,3-b]pyridine] | – | – | – | 73.8 | – | –
14 | Cc1noc(C)c1-c1c[nH]c2ncc(-c3ccc(N4CCN(C)CC4)cc3)cc12 [Compound 19, 3-(3,5-dimethylisoxazol-4-yl)-5-[4-(4-methylpiperazin-1-yl)phenyl]-1H-pyrrolo[2,3-b]pyridine] | 24.2 | – | – | 69.4 | – | –
15 | CN1CCN(c2ccc(-c3cnc4[nH]cc(-c5ccccc5)c4c3)cc2)CC1 [Compound 25, 5-[4-(4-methylpiperazin-1-yl)phenyl]-3-phenyl-1H-pyrrolo[2,3-b]pyridine] | 1.2 | – | – | 77.1 | – | –
16 | CN1CCN(C(=O)c2ccc(-c3cnc4[nH]cc(-c5ccnn5C)c4c3)cc2)CC1 [Compound 14, (4-methylpiperazin-1-yl) {4-[3-(2-methylpyrazol-3-yl)-1H-pyrrolo[2,3-b]pyridin-5-yl]phenyl}ketone] | – | – | 57 | – | – | –
17 | CN1CCN(Cc2ccc(-c3cnc4[nH]cc(-c5ccnn5C)c4c3)cc2)CC1 [Compound 15, 5-{4-[(4-methylpiperazin-1-yl)methyl]phenyl}-3-(2-methylpyrazol-3-yl)-1H-pyrrolo[2,3-b]pyridine] | – | 47.5 | 109 | 99.1 | – | –
18 | Cc1n[nH]c(C)c1-c1c[nH]c2ncc(-c3ccc(N4CCN(C)CC4)cc3)cc12 [Compound 5, 3-(3,5-dimethyl-1H-pyrazol-4-yl)-5-[4-(4-methylpiperazin-1-yl)phenyl]-1H-pyrrolo[2,3-b]pyridine] | 1.2 | – | – | 79.5 | – | –
19 | c1cc(-c2c[nH]c3ncc(-c4ccc(OCCN5CCOCC5)cc4)cc23)n[nH]1 [Compound 20, 3-(1H-pyrazol-3-yl)-5-(4-[[2-(1,4-oxazacyclohexan-4-yl)ethyl]oxy]phenyl)-1H-pyrrolo[2,3-b]pyridine] | – | – | – | – | – | 54.04
20 | CN1CCN(c2ccc(-c3cnc4[nH]cc(-c5cncnc5)c4c3)cc2)CC1 [Compound 23, 5-[4-(4-methylpiperazin-1-yl)phenyl]-3-(pyrimidin-5-yl)-1H-pyrrolo[2,3-b]pyridine] | 4.8 | – | – | 97.9 | – | –
